Measurements published in the CheMixHub viscosity set.
Values joined by “and” are separate entries in the source; they are usually repeats but may differ in a detail not shown here. Identical values can stand only once. ± gives the uncertainty stated by the source.

Test: xn = mol fraction of the nth substance listed

CC(=O)N1CCOCC1 + CCC(C)O
viscosity [mPa·s], 101 kPa
Conditions	293.15 K	303.15 K	313.15 K	323.15 K
x1 = 0.0516	5.054 ± 0.17	4.116 ± 0.14	3.093 ± 0.1	2.101 ± 0.072
x1 = 0.1322	6.732 ± 0.2	5.737 ± 0.18	4.626 ± 0.15	3.598 ± 0.12
x1 = 0.2217	8.167 ± 0.24	7.11 ± 0.21	5.901 ± 0.18	4.833 ± 0.16
x1 = 0.2879	8.981 ± 0.26	7.878 ± 0.23	6.596 ± 0.2	5.499 ± 0.18
x1 = 0.3188	9.257 ± 0.27	8.132 ± 0.24	6.816 ± 0.21	5.706 ± 0.18
x1 = 0.3996	9.785 ± 0.28	8.603 ± 0.25	7.199 ± 0.22	6.052 ± 0.19
x1 = 0.4597	10.02 ± 0.29	8.8 ± 0.26	7.33 ± 0.22	6.157 ± 0.19
x1 = 0.5084	–	–	7.42 ± 0.22	–
x1 = 0.5094	10.2 ± 0.29	8.944 ± 0.26	–	6.225 ± 0.2
x1 = 0.5496	10.27 ± 0.29	8.985 ± 0.26	7.418 ± 0.22	6.204 ± 0.2
x1 = 0.6127	10.29 ± 0.3	8.96 ± 0.26	7.323 ± 0.22	6.082 ± 0.19
x1 = 0.6444	10.11 ± 0.29	8.757 ± 0.26	7.086 ± 0.22	5.83 ± 0.19
x1 = 0.6915	10.11 ± 0.29	8.728 ± 0.26	7.005 ± 0.22	5.728 ± 0.18
x1 = 0.7516	9.956 ± 0.29	8.527 ± 0.25	6.739 ± 0.21	5.436 ± 0.18
x1 = 0.7984	9.588 ± 0.28	8.127 ± 0.24	6.288 ± 0.2	4.964 ± 0.17
x1 = 0.8599	9.409 ± 0.28	7.905 ± 0.24	5.998 ± 0.19	4.647 ± 0.16
x1 = 0.9127	8.959 ± 0.27	7.419 ± 0.23	5.454 ± 0.18	4.079 ± 0.14
x2 = 0.0157	8.843 ± 0.27	7.252 ± 0.23	5.209 ± 0.17	3.918 ± 0.14

CCCCCC[n+]1ccn(C)c1.O=[N+]([O-])[O-] + CCC(C)O
Conditions	viscosity [mPa·s]
298.15 K, 100 kPa, x1 = 0.7392	237.5 ± 13

Cc1cccc2ccccc12 + CCCCCCC
viscosity [mPa·s], 100 kPa
Conditions	x2 = 0.125	x2 = 0.25	x2 = 0.375	x2 = 0.5	x2 = 0.625	x2 = 0.75	x2 = 0.875
303.15 K	1.84 ± 0.046	1.36 ± 0.033	1.03 ± 0.024	0.8 ± 0.019	0.644 ± 0.015	0.524 ± 0.012	0.438 ± 0.01
323.15 K	1.3 ± 0.032	1 ± 0.024	0.781 ± 0.019	0.625 ± 0.015	0.512 ± 0.012	0.424 ± 0.01	0.357 ± 0.008

CCC1CCCCC1 + CCCCCCCC(=O)OCC
viscosity [mPa·s], 100 kPa
Conditions	x1 = 0.1001	x1 = 0.2	x1 = 0.3	x1 = 0.3998	x1 = 0.5	x1 = 0.5997	x1 = 0.7	x1 = 0.8001	x1 = 0.9
293.15 K	1.446 ± 0.045	1.359 ± 0.042	1.278 ± 0.04	1.201 ± 0.038	1.128 ± 0.035	1.058 ± 0.033	0.992 ± 0.031	0.929 ± 0.029	0.877 ± 0.027
298.15 K	1.328 ± 0.041	1.254 ± 0.039	1.182 ± 0.037	1.113 ± 0.035	1.046 ± 0.033	0.983 ± 0.031	0.924 ± 0.029	0.869 ± 0.027	0.821 ± 0.026
303.15 K	1.224 ± 0.038	1.156 ± 0.036	1.09 ± 0.034	1.03 ± 0.032	0.971 ± 0.03	0.916 ± 0.029	0.862 ± 0.027	0.812 ± 0.025	0.768 ± 0.024
308.15 K	1.132 ± 0.035	1.071 ± 0.033	1.012 ± 0.032	0.957 ± 0.03	0.903 ± 0.028	0.854 ± 0.027	0.808 ± 0.025	0.762 ± 0.024	0.72 ± 0.023
313.15 K	1.039 ± 0.032	0.985 ± 0.031	0.932 ± 0.029	0.882 ± 0.028	0.835 ± 0.026	0.792 ± 0.025	0.749 ± 0.023	0.709 ± 0.022	0.674 ± 0.021
318.15 K	0.977 ± 0.031	0.927 ± 0.029	0.879 ± 0.027	0.833 ± 0.026	0.79 ± 0.025	0.748 ± 0.023	0.71 ± 0.022	0.672 ± 0.021	0.64 ± 0.02
323.15 K	0.902 ± 0.028	0.856 ± 0.027	0.812 ± 0.025	0.771 ± 0.024	0.733 ± 0.023	0.696 ± 0.022	0.661 ± 0.021	0.625 ± 0.02	0.595 ± 0.019

CCC1CCCCC1 + CCCCCCCCCC(=O)OCC
viscosity [mPa·s], 100 kPa
Conditions	x1 = 0.1001	x1 = 0.1999	x1 = 0.3001	x1 = 0.4	x1 = 0.5002	x1 = 0.5998	x1 = 0.7	x1 = 0.8	x1 = 0.9001
293.15 K	2.153 ± 0.05	1.979 ± 0.046	1.807 ± 0.041	1.642 ± 0.037	1.487 ± 0.033	1.342 ± 0.03	1.204 ± 0.027	1.079 ± 0.024	0.96 ± 0.021
298.15 K	1.963 ± 0.046	1.807 ± 0.042	1.655 ± 0.038	1.51 ± 0.034	1.373 ± 0.031	1.242 ± 0.028	1.12 ± 0.025	1.007 ± 0.022	0.9 ± 0.02
303.15 K	1.778 ± 0.041	1.642 ± 0.038	1.51 ± 0.035	1.382 ± 0.031	1.261 ± 0.028	1.146 ± 0.026	1.038 ± 0.023	0.936 ± 0.021	0.84 ± 0.018
308.15 K	1.626 ± 0.038	1.503 ± 0.035	1.384 ± 0.032	1.271 ± 0.029	1.165 ± 0.026	1.063 ± 0.024	0.966 ± 0.021	0.873 ± 0.019	0.786 ± 0.017
313.15 K	1.494 ± 0.035	1.385 ± 0.032	1.276 ± 0.029	1.174 ± 0.027	1.078 ± 0.024	0.987 ± 0.022	0.9 ± 0.02	0.815 ± 0.018	0.734 ± 0.016
318.15 K	1.377 ± 0.032	1.279 ± 0.03	1.185 ± 0.027	1.095 ± 0.025	1.01 ± 0.023	0.928 ± 0.021	0.846 ± 0.019	0.767 ± 0.017	0.692 ± 0.015
323.15 K	1.27 ± 0.03	1.184 ± 0.027	1.102 ± 0.025	1.021 ± 0.023	0.943 ± 0.021	0.867 ± 0.019	0.793 ± 0.018	0.722 ± 0.016	0.652 ± 0.014

Cc1cccc2ccccc12 + CCCCCCCCCCCC
323.15 K, 100 kPa
Conditions	viscosity
x1 = 0.382	1.01 ± 0.042 mPa·s and 1.02 ± 0.042 mPa·s
x1 = 0.699	1.22 ± 0.052 mPa·s

CCCCCCCCCO + CCCCCCCCCCO
Conditions	viscosity [mPa·s]
293.15 K, 101.33 kPa, x1 = 0.1193	14.2 ± 0.33
293.15 K, 101.33 kPa, x1 = 0.3048	13.76 ± 0.32
293.15 K, 101.33 kPa, x1 = 0.5886	12.82 ± 0.3
293.15 K, 101.33 kPa, x1 = 0.8745	12.02 ± 0.29
298.15 K, 101.33 kPa, x1 = 0.2583	11.34 ± 0.27
298.15 K, 101.33 kPa, x1 = 0.6152	10.53 ± 0.26
298.15 K, 101.33 kPa, x1 = 0.869	9.852 ± 0.24
298.15 K, 101.8 kPa, x1 = 0.9074	9.726 ± 0.35
308.15 K, 101.8 kPa, x1 = 0.1082	7.899 ± 0.35
308.15 K, 101.8 kPa, x1 = 0.3202	7.632 ± 0.34
308.15 K, 101.8 kPa, x1 = 0.7188	7.125 ± 0.34
308.15 K, 101.8 kPa, x1 = 0.9074	6.876 ± 0.33
318.15 K, 101.8 kPa, x1 = 0.1082	5.649 ± 0.34
318.15 K, 101.8 kPa, x1 = 0.3202	5.463 ± 0.33
318.15 K, 101.8 kPa, x1 = 0.5233	5.336 ± 0.33
318.15 K, 101.8 kPa, x1 = 0.7188	5.124 ± 0.33
318.15 K, 101.8 kPa, x1 = 0.9074	4.953 ± 0.33
